Entries after “also recorded” stand apart in the source; their conditions may differ. Like-named read-outs stand apart in the source and are kept apart here. Numbered stars: 1 amine (or outer) side, 2 acyl side, 3 side chain; on linkers, the order of the positions; unused ones are H or OH. Side chains are listed from the residue outwards. Peptide text beside a SMILES is read from it. * marks the point of attachment. C18 diacid = O=C(O)CCCCCCCCCCCCCCCCC(=O)*; γGlu = O=C(O)[C@H](CCC(=O)[*:2])N[*:1]; Fumaroyl = O=C(O)/C=C/C(=O)*; Suc = O=C(CCC(=O)[*:2])[*:1]; Lauroyl = CCCCCCCCCCCC(=O)*; AEEA = NCCOCCOCC(=O)O
How the values were obtained:
mouse model of dMACO = assay: Cerebral blood flow perfusion in mouse model of dMACO (laser speckle flowmeter); format: in vivo, C57 BL/6 mice
Excerpt: Eight-week-old male C57 BL/6 mice were used and acclimated for at least 3 days. On the day of experiment, the mice were anesthetized with isoflurane, and an incision of approximately 2 cm in length was made in the middle of the […]. The mice were placed under a laser speckle flowmeter to capture a video of blood flow on both sides of the brain as images of pre-ischemic blood flow perfusion. Subsequently, a skull incision (3 mm×1.5 mm) was made at the right rear of the intersection of the sagittal suture and the coronal suture with a skull drill. The distal end of the right middle cerebral artery was located under a microscope, and a No.11 suture was used to ligate the middle artery. Meanwhile, the right common carotid artery was separated and ligated. A video of blood flow on both sides of the brain was captured again as images of post-ischemic blood flow perfusion. The scalp was sutured, and the animals were rewarmed in a rewarming box. Successfully modeled dMACO mice were randomly assigned to single-dose BX-34 groups of 7, 14, and 42 µg/Kg, single-dose IRL1620 groups of 5 and 10 µg/Kg, a three-dose IRL1620 group of 10 µg/Kg, and a normal saline control group. The single-dose groups were administered via tail vein 1 h after modeling, while the three-dose group was administered via tail vein at 1 hour, 3 hours, and 5 hours after modeling. A video of blood flow on both sides of the brain of each animal was captured again at 24 hours, 48 hours, and D7 after administration. During data analysis, the ROI was introduced or the area requiring blood flow calculation was selected. The average blood flow of the selected area was calculated by double-clicking on the blood flow image. Ratios of the average blood flow perfusions on right brain after modeling, and 24 hours, 48 hours and D7 after administration, to the average blood flow on right brain before modeling were used for statistical analysis of each group.

rat model of pMACO [1] = assay: Grip strength test in rat model of pMACO; format: in vivo, SD rats
rat model of pMACO [2] = assay: Foot fault test in rat model of pMACO; format: in vivo, SD rats; details: for Foot fault Analysis Mean of 7D: percentage of foot faults at 7D; for Foot fault Analysis Mean of 7D / Foot fault Analysis Mean of 24h: IRL1620 5 µg/Kg, administered 3 times (2, 4, 6 hours after modeling); for Foot fault Analysis Mean of 7D / Foot fault Analysis Mean of 24h / Foot fault Analysis Mean of Pretest: BX34 7 µg/Kg, BX48 5 µg/Kg; for Foot fault Analysis Mean of 24h: percentage of foot faults at 24h; for Foot fault Analysis Mean of Pretest: percentage of foot faults, pretest (baseline before administration), groups IRL1620 5 µg/Kg, 3 times
Excerpt: Male SD rats weighing 280-300 g were used and acclimated for at least 3 days. Focal cerebral ischemia was induced by middle cerebral artery occlusion with a suture method under isoflurane anesthesia. The animals were placed in a secure supine position, and a midline incision was made to expose the right common carotid artery, external carotid artery, and internal carotid artery. A 4.0 monofilament nylon suture was advanced from the external carotid artery toward the internal carotid artery lumen until resistance was felt ( ~ 20 mm), indicating middle cerebral artery occlusion. The nylon filament was allowed to stay in place to create a permanent model of focal cerebral ischemia. Successfully modeled rats were randomly assigned to four groups: a solvent (normal saline) group (n=10), a 7 µg/Kg BX-34 group (n=10), a 5 µg/Kg BX-48 group (n=10), and a 5 µg/Kg IRL1620 group (n=10). Each group was administered once at 2 hours, 4 hours, and 6 hours, respectively, after modeling, for a total of three administrations. Grip strength was measured before administration and at 24 hours and on D3 and D7 after administration. A rotarod test and a foot fault test were performed before administration and at 24 hours and day 7 after administration. During the rotarod test, time and distance were recorded, and ratios of the measurement at 24 hours and the measurement at D7 to the pretest measurement were used as analysis indicators. The specific method for the foot fault test was as follows. The rats were placed on an elevated grid floor (29×29 cm, grid opening: 3 cm^2) for 2 minutes, and the number of foot faults (when a forelimb fell through the grid) and the total steps were recorded. % Foot fault = (the number of forelimb faults/the total number of forelimb steps) × 100.

in vivo = details: male, SD, rat, in vivo, iv
Summary of the method: (§1)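 Male SD rats (200-230 g) given single tail-vein injections, descending doses from 480 µg/Kg to 30 µg/Kg. Toxic response, mortality and time of death recorded; acute toxicity level preliminarily set from doses without mortality.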

male SD rats [3] = assay: in vivo; details: one animal per row, observed 24 hours
Summary of the method: as §1

male SD rats [4] = details: one animal per row, observed 48 hours
Method: In an experiment about acute toxicity of subcutaneous administration, male SD rats weighing 200-230 g were dosed in a range between 60 µg/Kg and 960 µg/Kg. Observation was made for 48 hours after subcutaneous administration. Toxic response and mortality of the rats were preliminarily observed, and time of death and doses without mortality were recorded. The level of acute toxicity of the polypeptides was preliminarily determined based on the doses without mortality.

[5] = intravenous (tail vein) 30 µg/Kg
[6] = intravenous (tail vein) 60 µg/Kg
[7] = intravenous (tail vein) 120 µg/Kg
[8] = pMACO rats, 3 administrations (2, 4, 6 h after modeling), IRL1620 5µg/Kg, BX34 7µg/Kg, BX48 5µg/Kg

CC[C@H](C)[C@H](NC(=O)[C@H](CC(=O)O)NC(=O)[C@H](CCCCNC(=O)COCCOCCNC(=O)COCCOCCNC(=O)CC[C@H](NC(=O)CCCCCCCCCCCCCCCCC(=O)O)C(=O)O)NC(=O)[C@H](Cc1c[nH]cn1)NC(=O)[C@H](C)NC(=O)[C@H](Cc1ccccc1)NC(=O)[C@H](Cc1ccc(O)cc1)NC(=O)[C@@H](NC(=O)[C@H](C)NC(=O)[C@H](CCC(=O)O)NC(=O)[C@H](CCC(=O)O)NC(=O)[C@H](CC(=O)O)NC(=O)/C=C/C(=O)O)C(C)C)C(=O)N[C@H](C(=O)N[C@@H](Cc1c[nH]c2ccccc12)C(=O)O)[C@@H](C)CC [BX-34] (Fumaroyl-DEEAVYFAHK([AEEA-AEEA-γGlu-C18 diacid])DIIW-OH)
cerebral blood flow perfusion amount compared to the normal saline group (mouse model of dMACO; dMCAO mice, single dose of 42 µg/kg via tail vein, 24 hours, 48 hours and D7 after administration): significantly increased | Grip Strength Test 3D/pre (rat model of pMACO [1]; rat, in vivo): 63% ±14% | Grip Strength Test 7D/pre (rat model of pMACO [1]; rat, in vivo): 67% ±19% | Grip Strength Test 24h/pre (rat model of pMACO [1]; rat, in vivo): 40% ±24% | percentages of foot faults compared with the saline group and the IRL1620 group (rat model of pMACO [2]; pMACO rats, BX-34 7 µg/Kg, BX-48 5 µg/Kg, three administrations): lower | Foot fault Analysis Mean of 7D (rat model of pMACO [2]): 3.46%±2.92% | Foot fault Analysis Mean of 24h (rat model of pMACO [2]): 10.64%±15.53% | Foot fault Analysis Mean of Pretest (rat model of pMACO [2]): 1%±1%

CCCCCCCCCCCC(=O)N[C@@H](CCC(=O)NCCOCCOCC(=O)NCCCC[C@H](NC(=O)[C@H](Cc1c[nH]cn1)NC(=O)[C@H](C)NC(=O)[C@H](Cc1ccccc1)NC(=O)[C@H](Cc1ccc(O)cc1)NC(=O)[C@@H](NC(=O)[C@H](C)NC(=O)[C@H](CCC(=O)O)NC(=O)[C@H](CCC(=O)O)NC(=O)[C@H](CC(=O)O)NC(=O)/C=C/C(=O)O)C(C)C)C(=O)N[C@@H](CC(=O)O)C(=O)N[C@H](C(=O)N[C@H](C(=O)N[C@@H](Cc1c[nH]c2ccccc12)C(=O)O)[C@@H](C)CC)[C@@H](C)CC)C(=O)O [BX-225] (Fumaroyl-DEEAVYFAHK([AEEA-γGlu-Lauroyl])DIIW-OH)
MTD at 24 h (in vivo): 0.03 mg/kg | Observations of Animal Status (male SD rats [3]; [5]): No obvious abnormalities observed within 24 hours | Observations of Animal Status (male SD rats [3]; [6]): Lay still and showed no willingness to move at 7 minutes; became active at 10 minutes; signs of pain were observed in the animal through pupil observation; no pain at 23 minutes; also recorded: Lay still and showed no willingness to move at 7 minutes; became active at 10 minutes; signs of pain were observed in the animal through pupil observation; developed rapid breathing at 35 minutes; died at 70 minutes | Observations of Animal Status (male SD rats [3]; [7]): Breathing became slightly faster at 2 minutes, showed no willingness to move, had slow reactions, and breathing speeded up at 25 minutes; the symptoms basically eased at 1.5 hours; also recorded: Showed no willingness to move, had slow reactions, and breathing became slightly faster at 10 minutes; the symptoms lasted for nearly 1 hour; the symptoms basically eased at 1 hour and 10 minutes; also recorded: Developed abdominal breathing and lay still at 27 minutes; died of difficulty in breathing at 40 minutes; also recorded: Developed abdominal breathing and lay still at 25 minutes; died of difficulty in breathing at 32 minutes | Observations of Animal Status (male SD rats [3]; intravenous (tail vein) 240 µg/Kg): Developed rapid breathing at 4 minutes, collapsed at 5 minutes, eyes turned dull at 7 minutes; died at 12 minutes

CC[C@H](C)[C@H](NC(=O)[C@H](CC(=O)O)NC(=O)[C@H](CC(C)C)NC(=O)[C@H](Cc1c[nH]cn1)NC(=O)[C@H](C)NC(=O)[C@H](Cc1ccccc1)NC(=O)[C@H](Cc1ccc(O)cc1)NC(=O)[C@@H](NC(=O)[C@H](C)NC(=O)[C@H](CCC(=O)O)NC(=O)[C@H](CCC(=O)O)NC(=O)[C@H](CC(=O)O)NC(=O)CCC(=O)O)C(C)C)C(=O)N[C@H](C(=O)N[C@@H](Cc1c[nH]c2ccccc12)C(=O)O)[C@@H](C)CC [IRL1620, reference compound] (Suc-DEEAVYFAHLDIIW-OH)
cerebral blood flow perfusion amount compared to the normal saline group (mouse model of dMACO; dMCAO mice, single dose of 5 µg/kg via tail vein): no significant differences | cerebral blood flow perfusion amount compared to the normal saline group (mouse model of dMACO; mouse, in vivo): no significant differences | Grip Strength Test 3D/pre (rat model of pMACO [1]; [8]): 57%±11% | Grip Strength Test 7D/pre (rat model of pMACO [1]; [8]): 61%+13% | Grip Strength Test 24h/pre (rat model of pMACO [1]; [8]): 47% ±27% | Foot fault Analysis Mean of 7D (rat model of pMACO [2]): 4.3%+3.14% | Foot fault Analysis Mean of 24h (rat model of pMACO [2]): 14.2%±17.61% | Foot fault Analysis Mean of Pretest (rat model of pMACO [2]): 1%±2% | MTD at 24 h (in vivo): 0.03 mg/kg | Observations of Animal Status (male SD rats [3]; [5]): Developed rapid breathing at 13 minutes, showed no willingness to move at 30 minutes; recovered at 1.5 hours; also recorded: Developed rapid breathing at 15 minutes, showed no willingness to move at 25 minutes; recovered at 1.5 hours; also recorded: Lay still at 25 minutes, showed no willingness to move at 1.5 hours; found dead the next morning (estimated to have died during the night) | Observations of Animal Status (male SD rats [3]; [6]): Developed rapid breathing at 3 minutes; died at 8 minutes | Observations of Animal Status (male SD rats [3]; [7]): Developed rapid breathing and the body turned purple at 5 minutes; died at 9 minutes | Observations of Animal Status (male SD rats [4]; subcutaneous 60 µg/Kg): Developed rapid breathing at 25 minutes after administration, recovered after 15 minutes; also recorded: Developed rapid breathing at 26 minutes after administration, recovered after 16 minutes; also recorded: Developed rapid breathing at 30 minutes after administration, recovered after 17 minutes; also recorded: Developed rapid breathing at 25 minutes after administration, recovered after 16 minutes | Observations of Animal Status (male SD rats [4]; subcutaneous 120 µg/Kg): Developed rapid breathing at 27 minutes after administration, gradually recovered after 50 minutes; also recorded: Developed rapid breathing at 26 minutes after administration and lasted for 23 minutes; then died; also recorded: Developed rapid breathing at 26 minutes after administration, gradually recovered after 50 minutes; also recorded: Developed rapid breathing at 28 minutes after administration, gradually recovered after 50 minutes
